Reference: ChEMBL document CHEMBL1124201, “Optimizing of 2,3-diarylindenes as fluorescent estrogens: variation of the acceptor group, ortho substitution of the 2-ring, and C-1 methylation” (J Med Chem, 1988)

Molecular target: Estrogen receptor (Rattus norvegicus) (UniProt P06211+Q62986)
Assay: Displacement of [3H]estradiol from estrogen receptor of rat uterine cytosol
Type: protein assay

Compound: Oc1ccc(C2=C(c3ccc(Br)cc3)Cc3cc(O)ccc32)cc1
- RBA: 0.76%

Compound: O=[N+]([O-])c1cccc(C2=C(c3ccc(O)cc3)c3ccc(O)cc3C2)c1
- RBA: 0.6%

Compound: Cc1ccccc1C1=C(c2ccc(O)cc2)c2ccc(O)cc2C1
- RBA: 30%

Compound: N#Cc1ccc(C2=C(c3ccc(O)cc3)c3ccc(O)cc3C2)cc1
- RBA: 1%

Compound: O=[N+]([O-])c1ccc(C2=C(c3ccccc3)c3ccc(O)cc3C2)cc1
- RBA: 0.46%

Compound: Oc1ccc(C2=C(c3cccnc3)Cc3cc(O)ccc32)cc1
- RBA: 0.05%

Compound: Oc1ccc(C2=C(c3ccccc3C(F)(F)F)Cc3cc(O)ccc32)cc1
- RBA: 38%

Compound: Oc1ccc(C2=C(c3ccccc3)Cc3cc(O)ccc32)cc1
- RBA: 4.7%

Compound: O=[N+]([O-])c1ccc(C2=C(c3ccc(O)cc3)c3ccc(O)cc3C2)cc1
- RBA: 0.69%

Compound: CC1C(c2ccccc2)=C(c2ccccc2)c2ccc(O)cc21 (stereo unspecified)
- RBA: 12%

Compound: Oc1ccc(C2=C(c3ccccc3)c3ccc(O)cc3C2)cc1
- RBA: 28%
